Measurements: patent US5393744A, “Glucosyl phosphotriesters of thymidine” (Institut Pasteur, priority 1988, dated 1995)

Tests used:
Format in all cases: cell-based
HIV-1 virus [1] = assay: Infection of activated lymphocytes by the lysates of infected macrophages (co-culture, reverse transcriptase activity)
Experimental: (§1) The drugs 6651, AZT, 6714 and ddT were diluted in DMSO.
(§2) The virus HIV-1 utilized is derived from a culture supernatant of CEM-LAV 1 cells; these latter are maintained by the addition at each passage (every 3 or 4 days) of uninfected CEM cells. The titre of the virus in the clarified culture supernatant is higher than 10^6 cpm/ml in reverse transcriptase activity and 10^3 infectious units/ml on lymphocytes of sero-negative donors.
The lymphocytes were isolated from the peripheral blood of sero-negative donors on a Ficoll^R gradient (MSL, Eurobio). The lymphocytes thus obtained were stimulated with the phytohemaglutinin p(PHA-p) for 3 days before their utilization.
The lymphocytes are cultivated in RPMI 1640 medium, supplemented with 10% of fetal calf serum, 10% of interleukin 2, 2 μg/ml of polybrene, 1% of glutamine, 1% of antibiotics.
(§3) The macrophages were obtained from a deleucocytation pocket. The mononucleated cells were separated on a Ficoll^R gradient. The cells were adjusted to 50.10^6 cells/ml in the RPMI 1640 medium (MBA) containing 20% fetal calf serum (Flow), 10 mM Hepes (Sigma), 1% of PSN and 1% of glutamine (Gibco). After 1 h of incubation at 4° C. with gentle shaking, the macrophages agglutinate among themselves. The agglutinated macrophages are sedimented for 15 mn at 4° C. The supernatant containing an enrichment in lymphocytes was removed and the pellet enriched in macrophages was diluted to 5.10^6 cells/ml in the medium previously described. The cell suspension was then placed in Petri dishes of 60 mm diameter and placed at 37° C. for 1 h 30. The unattached cells are removed and the washed cell carpet was then detached with a scraper. The cells thus recovered were used directly for the study.
(§4) For this study, the production of HIV-1 virus by infected macrophages in the presence or absence of the drugs 6714 or ddT and 6651 or AZT were monitored either in continuous culture for at least 30 days or after lysis of the macrophages at day +14 and infection of lymphocytes by this lysate.
The quantity of cells placed in culture and the conditions of infection are identical with those previously described.
At day 14 after infection, the macrophages were lysed by two successive freezings to -20° C. and thawings at 37° C. The lysate recovered was then utilized as inoculum to infect 3.10^6 activated lymphocytes derived from a sero-negative donor. After 1 h of absorption, the lymphocytes were adjusted to 10^6 cells per ml and the drugs were added at the concentrations corresponding to those of the lysate.
The lymphocytes were subcultured every 3 or 4 days and an assay of the reverse transcriptase was carried out starting from the culture supernatant at each passage.
(§5) 3) Measurement of the reverse transcriptase activity
(§6) The reverse transcriptase activity is assayed starting from 1 ml of culture supernatant concentrated 100 times by ultra-centrifugation for 5 mn at 95.000 rpm (Rotor TL 100^R Beckman).
(§7) The pellet is resuspended in 10 μl of NTE Triton^R ×100 0.1%.
(§8) After 1 h at 37° C., the acid-insoluble products are precipitated by 20% trichloroacetic acid, filtered onto 0.45μ Millipore^R and the B radioactivity is measured with the aid of a Kontron scintillation counter.

HIV-1 virus [2] = assay: Replication of HIV-1 in macrophages of sero-negative donors, continuous culture (reverse transcriptase activity)
Experimental: as §1, §2, §3, §4
For each test, 15.10^6 cells were or were not infected with the HIV-1 virus (6000 cpm/10^6 cells). After 1 h of absorption at 37° C., the cells were placed in 6-wells Costar plates and 5.10^-5 M or 10^-5 M of the drugs 6714 and ddT and 10^-5 M, 10^-6 M or 10^-7 M of the drugs 6651 and AZT were added to the culture medium. The medium was changed every 3 or 4 days and the reverse transcriptase activity was determined in the culture supernatant. The drugs were added at each passage to the culture medium at the respective concentrations indicated above.
as §5, §6, §7, §8

[3] = tested on: recombinant retrovirus of murine origin (MoMLV); assay: Residual virus (clones of βgal+ cells) after infection of mouse 3T3 test cells with LacZ recombinant MoMLV retrovirus; conditions: 3T3 cells; for residual virus (% not inhibited) at 10 µM / residual virus (% not inhibited) at 1 µM / residual virus (% not inhibited) at 0.1 µM / residual virus (% not inhibited) at 100 µM: NIH3T3, 48 hours after infection, mean of several experiments, read-out: % of the residual virus (not inhibited by the product); for residual virus (% not inhibited) at 10 µM: 10^-5 M; for residual virus (% not inhibited) at 1 µM: 10^-6 M; for residual virus (% not inhibited) at 0.1 µM: 10^-7 M; for residual virus (% not inhibited) at 100 µM: 10^-4 M
Experimental: The virus used is a recombinant retrovirus of murine origin (MoMLV) in which a reporter gene (LacZ) has been introduced.
Fixed amounts of LacZ recombinant retroviruses are placed in the presence of mouse infectable test cells (3T3) with or without the product to be tested. To each recombinant retrovirus corresponds a clone of β gal^+ cells. The number of clones of βgal^+ cells is read 48 hours after the infection. The % of the residual virus (not inhibited by the product) is indicated in the following table (mean of several independent experiments): […]

SMILES | viral production by activated lymphocytes (HIV-1 virus [1]; 5.10^-5 M) | viral production by activated lymphocytes, compared to untreated lysate (HIV-1 virus [1]; 10^-5 M) | viral production by activated lymphocytes with lysates of infected treated macrophages (general statement) (HIV-1 virus [1]; lysate at day 14) | multiplication of the HIV-1 virus in the macrophages (HIV-1 virus [1]; whatever the concentration tested, 5.10^-6 M or 10^-5 M) | proliferation of the HIV-1 virus in the macrophages (HIV-1 virus [2]; 5.10^-5 M and 10^-5 M) | residual virus (% not inhibited) at 10 µM [3] [%] | residual virus (% not inhibited) at 1 µM [3] [%] | residual virus (% not inhibited) at 0.1 µM [3] [%] | viral production on the lymphocytes with the lysates of treated macrophages (HIV-1 virus [1]; 10^-5 M, 10^-6 M and 10^-7 M (FIG. 4d)) | multiplication of the HIV-1 virus at the interior of the macrophage (HIV-1 virus [1]; whatever the concentration tested, 10^-5 M, 10^-6 M and 10^-7 M) | proliferation of the HIV-1 virus in the macrophages (HIV-1 virus [2]; 10^-5 M, 10^-6 M and 10^-7 M) | residual virus (% not inhibited) at 100 µM [3] [%] | retroviral activity (in words) ([3]; recombinant MoMLV)
Cc1cn([C@H]2CC[C@@H](CO)O2)c(=O)[nH]c1=O [ddT, 3'-deoxy-thymidine, reference compound] | seems to be lower | comparable to the untreated lysate | make it possible to obtain a vital production by activated lymphocytes | there is multiplication of the HIV-1 virus in the macrophages, but the escape of the virus seems to be blocked | block the proliferation of the HIV-1 virus in the macrophages | 78 | 87 | 101 | – | – | – | – | –
Cc1cn([C@H]2C[C@H](N=[N+]=[N-])[C@@H](CO)O2)c(=O)[nH]c1=O [AZT, 3'-azido 3'-deoxythymidine, reference compound] | – | – | – | – | – | 0 | 0 | 1 | no viral production is obtained on the lymphocytes | there is no multiplication of the HIV-1 virus at the interior of the macrophage | block the proliferation of the HIV-1 virus in the macrophages | 0 | active by themselves
CCCCCCCCCCCCCCCCOP(=O)(OCC1CCC(n2cc(C)c(=O)[nH]c2=O)O1)OCC1OC(O)C(O)C(O)C1O (stereo not shown) [compound 6650, 6-glucosyl hexadecyl 5'-(3'-deoxy) thymidinyl] | – | – | – | – | – | 79 | 78 | 96 | – | – | – | – | –
Cc1cn([C@H]2C[C@H](N=[N+]=[N-])[C@@H](COP(=O)(O)OC[C@H]3OC(O)[C@H](O)[C@@H](O)[C@@H]3O)O2)c(=O)[nH]c1=O (stereo partly shown) [compound 6715, 6-glucosyl 5' (3'-azido)-thymidinyl phosphate] | – | – | – | – | – | 0 | 3 | – | – | – | – | 0 | –
